Measured values: ChEMBL document CHEMBL3396979, “Synthesis and characterization of 1'-C-cyano-2'-fluoro-2'-C-methyl pyrimidine nucleosides as HCV polymerase inhibitors” (Bioorg Med Chem Lett, 2015)

How the values were obtained:
[1] = system: Hepatitis C virus; test: Antiviral activity against HCV genotype 1a infected in human HuH7 cells by replicon based assay; format: functional, cell-based, Hepacivirus hominis; details: subtype 1a, Huh-7
[2] = system: Hepatitis C virus; test: Antiviral activity against HCV genotype 1b infected in human HuH7 cells by replicon based assay; format: functional, cell-based, Hepacivirus hominis; details: Huh-7
[3] = Inhibition of HCV genotype 1b NS5B RNA dependent RNA polymerase assessed as reduction in triphosphate activity; set-up: species or system Hepatitis C virus subtype 1b
[4] = system: Hepatitis C virus; test: Antiviral activity against HCV genotype 2a infected in human HuH7 cells by replicon based assay; format: functional, cell-based, Hepacivirus hominis; details: Huh-7
[5] = Cytotoxicity against human HuH7 cells; format: cell-based, Huh-7
[6] = Drug metabolism in human HuH7 cells bearing HCV replicons assessed as formation of triphosphates at 10 uM after 72 hrs by liquid chromatography coupled to triple quadrupole mass spectrometry; format: ADME, cell-based; details: huh-7, 72 h
[7] = Drug metabolism in human HuH7 cells bearing HCV replicons assessed as formation of uridine-type triphosphates at 10 uM after 72 hrs by liquid chromatography coupled to triple quadrupole mass spectrometry; format: ADME, cell-based; details: huh-7, 72 h
[8] = Inhibition of HCV genotype 2a NS5B RNA dependent RNA polymerase assessed as reduction in triphosphate activity; set-up: species or system Hepatitis C virus subtype 2a
[9] = Inhibition of HCV genotype 3a NS5B RNA dependent RNA polymerase assessed as reduction in triphosphate activity; set-up: species or system Hepatitis C virus subtype 3a
[10] = Inhibition of HCV genotype 4a NS5B RNA dependent RNA polymerase assessed as reduction in triphosphate activity; set-up: species or system Hepatitis C virus subtype 4a

Row | SMILES | EC50 [1] [µM] | EC50 [2] [µM] | IC50 ([3]; read-out: IC50) [µM] | further results
1 | C[C@@]1(F)[C@H](O)[C@@H](CO)O[C@@]1(C#N)n1ccc(=O)[nH]c1=O | > 89 | > 89 | – | IC50 [3]: Not Active
2 | CC(C)OC(=O)[C@H](C)N[P@](=O)(OC[C@H]1O[C@@](C#N)(n2ccc(=O)[nH]c2=O)[C@](C)(F)[C@@H]1O)Oc1ccccc1 | – | 63.5 | – | EC50 [4]: > 88 µM; CC50 [5]: > 89 µM; Drug metabolism [6]: metabolite_detected
3 | CC(C)OC(=O)[C@H](C)N[P@](=O)(OC[C@H]1O[C@@](C#N)(n2ccc(N)nc2=O)[C@](C)(F)[C@@H]1O)Oc1ccccc1 | 2.9 | 17.6 | – | EC50 [4]: 2.3 µM; CC50 [5]: > 89 µM; Drug metabolism [6]: metabolite_detected; Drug metabolism [7]: metabolite_notdetected
4 | C[C@@]1(F)[C@H](O)[C@@H](CO)O[C@H]1n1ccc(N)nc1=O | 0.6 | 2.3 | – | Ki [3]: 0.06 µM
5 | C[C@@]1(O)[C@H](O)[C@@H](CO)O[C@@]1(C#N)n1ccc(=O)[nH]c1=O | > 89 | > 89 | 27 | –
6 | C[C@@]1(O)[C@H](O)[C@@H](CO)O[C@@]1(C#N)n1ccc(N)nc1=O | 76 | > 89 | 17.7 | –
7 | C[C@@]1(O)[C@H](O)[C@@H](CO)O[C@H]1n1ccc(N)nc1=O | – | – | 1.7 | –
8 | C[C@@]1(O)[C@H](O)[C@@H](CO)O[C@H]1n1ccc(=O)[nH]c1=O | – | 13.1 | 1.9 | –
9 | C[C@@]1(F)[C@H](O)[C@@H](CO)O[C@H]1n1ccc(=O)[nH]c1=O | > 89 | > 89 | 0.7 | IC50 [8]: 0.7 µM; IC50 [9]: 0.7 µM; IC50 [10]: 0.7 µM
10 | C[C@@]1(F)[C@H](O)[C@@H](CO)O[C@@]1(C#N)n1ccc(N)nc1=O | > 89 | > 89 | 57 | –
